From patent publication US20220169628A1 (University of Florida Research Foundation, Incorporated, priority 2019, published 2022)

Legend:
[1] = system: MOLT-4 cells; assay: Cell viability assay, MTS, 48 h, MOLT-4; type: cell-based; settings: Homo sapiens, MOLT-4, 48 h, 48 hours, read-out: IC50 (48 hours) MOLT-4
Description: (§1) Acute lymphoblastic leukemia cells (MOLT-4 and RS4; 11) or small cell lung cancer (NCI-H146 or simply H146) were incubated with increasing concentrations of Bcl-xL degraders for 48 h. Cell viability was measured by tetrazolium-based MTS assay.

[2] = system: RS4;11 cells; assay: Cell viability assay, MTS, 48 h, RS4;11; type: cell-based; settings: Homo sapiens, RS4-11, 48 h, 48 hours, read-out: IC50 (48 hours) RS4;11
Description: as §1

Compound	IC50 [1]	IC50 [2]
Cc1ncsc1-c1ccc([C@H](C)NC(=O)[C@@H]2C[C@@H](O)CN2C(=O)[C@@H](NC(=O)CCCCCC(=O)N2CCC(c3ccc(Cl)cc3)=C(CN3CCN(c4ccc(C(=O)NS(=O)(=O)c5ccc(N[C@H](CCN6CCOCC6)CSc6ccccc6)c(S(=O)(=O)C(F)(F)F)c5)cc4)CC3)C2)C(C)(C)C)cc1 [compound 80, (2S,4R)-1-((S)-2-(7-(4-(4-chlorophenyl)-5-((4-(4-(((4-(((R)-4-morpholino-1-(phenylthio)butan-2-yl)amino)-3-((trifluoromethyl)sulfonyl)phenyl)sulfonyl)carbamoyl)phenyl)piperazin-1-yl)methyl)-3,6-dihydropyridin-1(2H)-yl)-7-oxoheptanamido)-3,3-dimethylbutanoyl)-4-hydroxy-N—((S)-1-(4-(4-methylthiazol-5-yl)phenyl)ethyl)pyrrolidine-2-carboxamide]	> 500 nM	> 500 nM
Cc1ncsc1-c1ccc([C@H](C)NC(=O)[C@@H]2C[C@@H](O)CN2C(=O)[C@@H](NC(=O)CCCCCCCCC(=O)N2CCC(c3ccc(Cl)cc3)=C(CN3CCN(c4ccc(C(=O)NS(=O)(=O)c5ccc(N[C@H](CCN6CCOCC6)CSc6ccccc6)c(S(=O)(=O)C(F)(F)F)c5)cc4)CC3)C2)C(C)(C)C)cc1 [compound 83, (2S,4R)-1-((S)-2-(10-(4-(4-chlorophenyl)-5-((4-(4-(((4-(((R)-4-morpholino-1-(phenylthio)butan-2-yl)amino)-3-((trifluoromethyl)sulfonyl)phenyl)sulfonyl)carbamoyl)phenyl)piperazin-1-yl)methyl)-3,6-dihydropyridin-1(2H)-yl)-10-oxodecanamido)-3,3-dimethylbutanoyl)-4-hydroxy-N—((S)-1-(4-(4-methylthiazol-5-yl)phenyl)ethyl)pyrrolidine-2-carboxamide]	50 to 150 nM	150 to 500 nM
Cc1ncsc1-c1ccc([C@H](C)NC(=O)[C@@H]2C[C@@H](O)CN2C(=O)[C@@H](NC(=O)CCCCCCCCCC(=O)N2CCC(c3ccc(Cl)cc3)=C(CN3CCN(c4ccc(C(=O)NS(=O)(=O)c5ccc(N[C@H](CCN6CCOCC6)CSc6ccccc6)c(S(=O)(=O)C(F)(F)F)c5)cc4)CC3)C2)C(C)(C)C)cc1 [compound 84, (2S,4R)-1-((S)-2-(11-(4-(4-chlorophenyl)-5-((4-(4-(((4-(((R)-4-morpholino-1-(phenylthio)butan-2-yl)amino)-3-((trifluoromethyl)sulfonyl)phenyl)sulfonyl)carbamoyl)phenyl)piperazin-1-yl)methyl)-3,6-dihydropyridin-1(2H)-yl)-11-oxoundecanamido)-3,3-dimethylbutanoyl)-4-hydroxy-N—((S)-1-(4-(4-methylthiazol-5-yl)phenyl)ethyl)pyrrolidine-2-carboxamide]	150 to 500 nM	150 to 500 nM
Cc1ncsc1-c1ccc([C@H](C)NC(=O)[C@@H]2C[C@@H](O)CN2C(=O)[C@@H](NC(=O)CCCCCCCCCCC(=O)N2CCC(c3ccc(Cl)cc3)=C(CN3CCN(c4ccc(C(=O)NS(=O)(=O)c5ccc(N[C@H](CCN6CCOCC6)CSc6ccccc6)c(S(=O)(=O)C(F)(F)F)c5)cc4)CC3)C2)C(C)(C)C)cc1 [compound 85, (2S,4R)-1-((S)-2-(12-(4-(4-chlorophenyl)-5-((4-(4-(((4-(((R)-4-morpholino-1-(phenylthio)butan-2-yl)amino)-3-((trifluoromethyl)sulfonyl)phenyl)sulfonyl)carbamoyl)phenyl)piperazin-1-yl)methyl)-3,6-dihydropyridin-1(2H)-yl)-12-oxododecanamido)-3,3-dimethylbutanoyl)-4-hydroxy-N—((S)-1-(4-(4-methylthiazol-5-yl)phenyl)ethyl)pyrrolidine-2-carboxamide]	50 to 150 nM	50 to 150 nM
Cc1ncsc1-c1ccc([C@H](C)NC(=O)[C@@H]2C[C@@H](O)CN2C(=O)[C@@H](NC(=O)COCCOCCOCCOC(=O)N2CCC(c3ccc(Cl)cc3)=C(CN3CCN(c4ccc(C(=O)NS(=O)(=O)c5ccc(N[C@H](CCN6CCOCC6)CSc6ccccc6)c(S(=O)(=O)C(F)(F)F)c5)cc4)CC3)C2)C(C)(C)C)cc1 [compound 86, (S)-13-((2S,4R)-4-hydroxy-2-(((S)-1-(4-(4-methylthiazol-5-yl)phenyl)ethyl)carbamoyl)pyrrolidine-1-carbonyl)-14,14-dimethyl-11-oxo-3,6,9-trioxa-12-azapentadecyl 4-(4-chlorophenyl)-5-((4-(4-(((4-(((R)-4-morpholino-1-(phenylthio)butan-2-yl)amino)-3-((trifluoromethyl)sulfonyl)phenyl)sulfonyl)carbamoyl)phenyl)piperazin-1-yl)methyl)-3,6-dihydropyridine-1(2H)-carboxylate]	> 500 nM	> 500 nM

Further lines, results first:

IC50 [1]	IC50 [2]	Compound
> 500 nM	> 500 nM	Cc1ncsc1-c1ccc([C@H](C)NC(=O)[C@@H]2C[C@@H](O)CN2C(=O)[C@@H](NC(=O)COCCOCCOCCOCCOC(=O)N2CCC(c3ccc(Cl)cc3)=C(CN3CCN(c4ccc(C(=O)NS(=O)(=O)c5ccc(N[C@H](CCN6CCOCC6)CSc6ccccc6)c(S(=O)(=O)C(F)(F)F)c5)cc4)CC3)C2)C(C)(C)C)cc1 [compound 87, (S)-16-((2S,4R)-4-hydroxy-2-(((S)-1-(4-(4-methylthiazol-5-yl)phenyl)ethyl)carbamoyl)pyrrolidine-1-carbonyl)-17,17-dimethyl-14-oxo-3,6,9,12-tetraoxa-15-azaoctadecyl 4-(4-chlorophenyl)-5-((4-(4-(((4-(((R)-4-morpholino-1-(phenylthio)butan-2-yl)amino)-3-((trifluoromethyl)sulfonyl)phenyl)sulfonyl)carbamoyl)phenyl)piperazin-1-yl)methyl)-3,6-dihydropyridine-1(2H)-carboxylate]
150 to 500 nM	> 500 nM	Cc1ncsc1-c1ccc([C@@H](C)NC(=O)[C@@H]2C[C@@H](O)CN2C(=O)[C@@H](NC(=O)CCCCCCCCCN2CCC(c3ccc(Cl)cc3)=C(CN3CCN(c4ccc(C(=O)NS(=O)(=O)c5ccc(N[C@H](CCN6CCOCC6)CSc6ccccc6)c(S(=O)(=O)C(F)(F)F)c5)cc4)CC3)C2)C(C)(C)C)cc1 [compound 88, (2S,4R)-1-((S)-2-(10-(4-(4-chlorophenyl)-5-((4-(4-(((4-(((R)-4-morpholino-1-(phenylthio)butan-2-yl)amino)-3-((trifluoromethyl)sulfonyl)phenyl)sulfonyl)carbamoyl)phenyl)piperazin-1-yl)methyl)-3,6-dihydropyridin-1(2H)-yl)decanamido)-3,3-dimethylbutanoyl)-4-hydroxy-N—((R)-1-(4-(4-methylthiazol-5-yl)phenyl)ethyl)pyrrolidine-2-carboxamide]
> 500 nM	150 to 500 nM	Cc1ncsc1-c1ccc([C@H](C)NC(=O)[C@@H]2C[C@@H](O)CN2C(=O)[C@@H](NC(=O)COCCOCCOCCOCC(=O)NCC2(C)CCC(c3ccc(Cl)cc3)=C(CN3CCN(c4ccc(C(=O)NS(=O)(=O)c5ccc(N[C@H](CCN6CCOCC6)CSc6ccccc6)c(S(=O)(=O)C(F)(F)F)c5)cc4)CC3)C2)C(C)(C)C)cc1 (stereo partly drawn) [degrader #9, N1-((4′-chloro-4-methyl-6-((4-(4-(((4-(((R)-4-morpholino-1-(phenylthio)butan-2-yl)amino)-3-((trifluoromethyl)sulfonyl)phenyl)sulfonyl)carbamoyl)phenyl)piperazin-1-yl)methyl)-2,3,4,5-tetrahydro-[1,1′-biphenyl]-4-yl)methyl)-N14-((S)-1-((2S,4R)-4-hydroxy-2-(((S)-1-(4-(4-methylthiazol-5-yl)phenyl)ethyl)carbamoyl)pyrrolidin-1-yl)-3,3-dimethyl-1-oxobutan-2-yl)-3,6,9,12-tetraoxatetradecanediamide]
